Earlier results as cited in US11857566B2, “Sulfonated polystyrene derivative for use in the treatment and/or prophylaxis of cat flu” (UNIWERSYTET JAGIELLONSKI, priority 2018, dated 2024).

Experiments:
[1] = in vivo

**Q.** For `[Cl-].[Li+]` [lithium chloride], which “in vitro antiviral activity against FCV” value (FCV) is on record?
**A.** very high in vitro antiviral activity

**Q.** With `Nc1nc2c(ncn2COCCO)c(=O)[nH]1` [acyclovir] as the molecule, how does the bioavailability in cats (in vivo) read?
**A.** low

**Q.** And the activity in cats (FHV; compared with HSV-1 in humans)?
**A.** did not show equally high activity

**Q.** With `OC(c1cc(C(F)(F)F)nc2c(C(F)(F)F)cccc12)C1CCCCN1` (stereo not drawn) [mefloquine] as the molecule, how does the “in vitro antiviral activity against FCV” value (FCV) read?
**A.** very high in vitro antiviral activity

**Q.** For `Nc1nc2c(ncn2CCC(CO)CO)c(=O)[nH]1` [PCV, penciclovir], which “concentration of PCV in cats” value (after famciclovir) is on record?
**A.** much lower than expected

**Q.** For `CC(C)[C@H](N)C(=O)OCCOCn1cnc2c(=O)[nH]c(N)nc21` [VCV, Valaciclovir], which “adverse effects in cats” value [1] is on record?
**A.** many adverse effects, such as bone marrow suppression or liver and kidney necrosis leading to animal death

**Q.** What about the “symptoms of the disease in cats who took the drug” value (FHV; in vivo) of the same molecule?
**A.** did not improve symptoms of the disease

**Q.** Which “safety in treatment and prophylaxis of FHV infection in cats” value [1] does the source give for `CC(=O)OCC(CCn1cnc2cnc(N)nc21)COC(C)=O` [famciclovir] here?
**A.** has been shown to be safe

**Q.** With `NC(=O)c1ncn([C@@H]2O[C@H](CO)[C@@H](O)[C@H]2O)n1` [ribavirin] as the molecule, how does the “in vitro antiviral activity against FCV” value (FCV) read?
**A.** inhibits FCV infection in vitro
